Activity calls are given as the source filed them.
Columns and labels:
[1] = A375 melanoma cell cytotoxicity, dose response, counter-screen for MITF inhibitor project, CellTiter-Glo luminescence, dry powder, set 6 (AID 624488); type: functional, cell-based; settings: A-375
Aminopeptidase N = biological target: T1, Aminopeptidase N (Plasmodium falciparum FcB1/Columbia, UniProt O96935); experiment: P. falciparum M1AAP inhibitors, biochemical, fluorogenic H-Leu-NHMec substrate, 1536-well (AID 1445); parameters: species or system Plasmodium falciparum 3D7, 3D7
T1 sequence (O96935 whole entry): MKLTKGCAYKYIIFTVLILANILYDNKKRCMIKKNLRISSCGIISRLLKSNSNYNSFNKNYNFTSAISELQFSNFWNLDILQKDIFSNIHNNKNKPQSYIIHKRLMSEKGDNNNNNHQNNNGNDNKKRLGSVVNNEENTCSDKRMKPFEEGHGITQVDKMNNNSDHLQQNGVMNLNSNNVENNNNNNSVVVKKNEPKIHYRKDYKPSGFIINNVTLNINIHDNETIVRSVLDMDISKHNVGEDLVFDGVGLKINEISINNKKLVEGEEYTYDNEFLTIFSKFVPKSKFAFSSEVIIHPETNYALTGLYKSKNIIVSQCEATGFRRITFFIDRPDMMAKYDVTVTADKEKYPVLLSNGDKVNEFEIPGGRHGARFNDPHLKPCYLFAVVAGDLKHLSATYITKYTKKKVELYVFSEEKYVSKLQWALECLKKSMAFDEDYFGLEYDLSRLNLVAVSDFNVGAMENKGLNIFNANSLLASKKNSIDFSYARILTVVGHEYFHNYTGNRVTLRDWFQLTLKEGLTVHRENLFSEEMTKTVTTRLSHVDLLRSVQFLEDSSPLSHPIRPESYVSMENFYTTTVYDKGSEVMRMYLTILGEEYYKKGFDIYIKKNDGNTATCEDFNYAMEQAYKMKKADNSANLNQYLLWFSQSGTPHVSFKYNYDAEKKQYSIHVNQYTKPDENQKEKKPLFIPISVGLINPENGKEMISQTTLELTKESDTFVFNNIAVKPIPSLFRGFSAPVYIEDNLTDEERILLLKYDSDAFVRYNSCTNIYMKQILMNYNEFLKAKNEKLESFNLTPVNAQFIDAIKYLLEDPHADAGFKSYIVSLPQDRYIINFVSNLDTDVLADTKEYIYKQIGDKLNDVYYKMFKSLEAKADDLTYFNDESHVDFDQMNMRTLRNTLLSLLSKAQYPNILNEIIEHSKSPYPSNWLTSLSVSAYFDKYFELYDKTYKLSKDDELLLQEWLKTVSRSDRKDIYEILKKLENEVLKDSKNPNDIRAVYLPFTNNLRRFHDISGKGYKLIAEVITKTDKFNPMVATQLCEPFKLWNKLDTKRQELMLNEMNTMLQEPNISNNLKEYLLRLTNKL

[2] = biological target: Induced myeloid leukemia cell differentiation protein Mcl-1 (Homo sapiens, UniProt Q07820); type: functional
Nonstructural protein 1 = Nonstructural protein 1 (Influenza A virus, UniProt Q194T2); type: functional, Influenza A virus (A/California/07/2009(H1N1))
[3] = cytotoxicity toward NIH3T3 fibroblasts, dose response, counter-screen, cell-based, ATP luminescence, mouse fibroblasts (AID 2010); type: functional;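 note: cells exposed to compound for about 90 hours before reading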
[4] = inhibitors of intracellular T. cruzi replication, confirmation, NIH3T3 host cells, beta-gal luminescence (AID 2044); type: functional, cell-based;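 note: intracellular parasites grown in NIH/3T3 mouse fibroblasts as host cells; luminescent beta-galactosidase reporter signal from transgenic T. cruzi replicating inside host cells; inhibitors lower the luminescence signal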
[5] = Counterscreen for antagonists of the orexin 1 receptor (OX1R; HCRTR1): Fluorescence-based cell-based high throughput dose response assay to identify antagonists of the parental CHO cell line. [Related pubchem assays (depositor defined):AID434989, AID435008, AID463079, AID485270, AID492963, AID492964, AID492965, AID493232, AID504699, AID504701]; type: functional
Orexin receptor type 2 = biological target: T2, Orexin receptor type 2 (Homo sapiens, UniProt O43614); experiment: Counterscreen assay for antagonists of the orexin 1 receptor (OX1R; HCRTR1): Fluorescence-based cell-based dose response assay for antagonists of the orexin 2 receptor (OX2R; HCRTR2), run by assay provider.; type: functional
T2 sequence (O43614 whole entry): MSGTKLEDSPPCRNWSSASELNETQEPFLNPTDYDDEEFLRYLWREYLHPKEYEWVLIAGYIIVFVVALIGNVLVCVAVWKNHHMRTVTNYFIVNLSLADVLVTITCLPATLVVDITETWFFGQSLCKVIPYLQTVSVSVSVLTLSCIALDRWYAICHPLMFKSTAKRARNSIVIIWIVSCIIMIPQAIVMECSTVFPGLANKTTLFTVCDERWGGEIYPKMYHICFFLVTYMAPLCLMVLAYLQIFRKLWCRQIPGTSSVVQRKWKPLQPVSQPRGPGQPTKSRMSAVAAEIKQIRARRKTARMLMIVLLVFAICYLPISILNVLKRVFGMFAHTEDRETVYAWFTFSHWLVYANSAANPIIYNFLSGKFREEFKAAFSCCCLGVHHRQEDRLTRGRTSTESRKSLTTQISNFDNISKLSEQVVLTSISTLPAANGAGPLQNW

[6] = biological target: Serine/threonine-protein kinase D3 (Homo sapiens, UniProt O94806); type: functional;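 note: determined within a kinase panel screen, with PRKCN as the panel member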
[7] = biological target: Homeodomain-interacting protein kinase 4 (Homo sapiens, UniProt Q8NE63); type: functional
[8] = biological target: Mitogen-activated protein kinase 13 (Homo sapiens, UniProt O15264); type: functional
[9] = biological target: MAP kinase-activated protein kinase 3 (Homo sapiens, UniProt Q16644); type: functional;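 note: value comes from a kinome-wide profiling panel in which MAPKAPK3 is one of the panel members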
[10] = biological target: Serine/threonine-protein kinase PLK1 (Homo sapiens, UniProt P53350); type: functional;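 note: PLK1 measured as one member of a kinome-wide profiling panel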
[11] = biological target: Tyrosine-protein kinase Fyn (Homo sapiens, UniProt P06241); type: functional
[12] = biological target: Casein kinase I isoform gamma-1 (Homo sapiens, UniProt Q9HCP0); type: functional;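 note: measured as the CSNK1G1 member of a kinome profiling panel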
SRSF protein kinase 1 = SRSF protein kinase 1 (Homo sapiens, UniProt Q96SB4); type: functional;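 note: measured as one member of a kinome-wide kinase profiling panel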
[13] = biological target: Mitogen-activated protein kinase 8 (Homo sapiens, UniProt P45983); type: functional;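 note: value comes from one member of a kinome-wide kinase profiling panel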
[14] = biological target: Serine/threonine-protein kinase D2 (Homo sapiens, UniProt Q9BZL6); type: functional;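 note: measured against PRKD2 as one member of a kinome-wide kinase profiling panel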
[15] = biological target: Leucine-rich repeat serine/threonine-protein kinase 2 (Homo sapiens, UniProt Q5S007); type: functional;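 note: value from a broad kinome-wide panel profiling study in which LRRK2 was one of the kinases tested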
[16] = biological target: ALK tyrosine kinase receptor (Homo sapiens, UniProt Q9UM73); type: functional;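 note: ALK tested as one member of a kinase panel screen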
Aurora kinase A = Aurora kinase A (Homo sapiens, UniProt O14965); type: functional;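 note: value from the Navigating the Kinome kinase panel profiling, panel entry STK6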
[17] = biological target: Dual specificity tyrosine-phosphorylation-regulated kinase 4 (Homo sapiens, UniProt Q9NR20); type: functional
[18] = biological target: Cell division cycle 7-related protein kinase (Homo sapiens, UniProt O00311); type: functional;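 note: value obtained from a kinome-wide kinase panel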

Sequence of Aurora kinase A (O14965 whole entry): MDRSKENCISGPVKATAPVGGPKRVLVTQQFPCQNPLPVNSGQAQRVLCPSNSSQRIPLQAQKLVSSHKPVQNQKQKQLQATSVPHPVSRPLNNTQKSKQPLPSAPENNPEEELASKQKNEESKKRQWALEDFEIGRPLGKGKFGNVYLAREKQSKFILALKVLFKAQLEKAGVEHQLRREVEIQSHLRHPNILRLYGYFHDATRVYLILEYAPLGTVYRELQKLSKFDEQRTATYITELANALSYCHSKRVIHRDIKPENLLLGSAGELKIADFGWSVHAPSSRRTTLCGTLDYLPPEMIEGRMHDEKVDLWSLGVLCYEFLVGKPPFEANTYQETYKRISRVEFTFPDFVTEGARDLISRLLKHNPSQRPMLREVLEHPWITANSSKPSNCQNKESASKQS
Sequence of Serine/threonine-protein kinase PLK1 (P53350 whole entry): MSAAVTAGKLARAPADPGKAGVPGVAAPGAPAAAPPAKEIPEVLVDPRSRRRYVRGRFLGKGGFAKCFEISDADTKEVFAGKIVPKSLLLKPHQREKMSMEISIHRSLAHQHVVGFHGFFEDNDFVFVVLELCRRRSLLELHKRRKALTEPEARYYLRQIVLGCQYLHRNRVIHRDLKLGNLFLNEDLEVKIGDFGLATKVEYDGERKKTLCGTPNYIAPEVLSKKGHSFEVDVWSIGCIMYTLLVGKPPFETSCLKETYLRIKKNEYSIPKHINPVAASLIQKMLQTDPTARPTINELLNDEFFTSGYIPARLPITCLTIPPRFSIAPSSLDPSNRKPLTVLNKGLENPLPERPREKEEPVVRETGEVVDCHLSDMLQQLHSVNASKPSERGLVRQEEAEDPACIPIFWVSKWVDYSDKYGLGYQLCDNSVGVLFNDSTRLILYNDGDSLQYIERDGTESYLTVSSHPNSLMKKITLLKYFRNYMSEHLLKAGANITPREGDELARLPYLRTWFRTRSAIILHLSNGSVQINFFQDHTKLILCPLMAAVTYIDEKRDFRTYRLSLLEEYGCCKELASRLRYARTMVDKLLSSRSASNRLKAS
Sequence of Mitogen-activated protein kinase 8 (P45983 whole entry): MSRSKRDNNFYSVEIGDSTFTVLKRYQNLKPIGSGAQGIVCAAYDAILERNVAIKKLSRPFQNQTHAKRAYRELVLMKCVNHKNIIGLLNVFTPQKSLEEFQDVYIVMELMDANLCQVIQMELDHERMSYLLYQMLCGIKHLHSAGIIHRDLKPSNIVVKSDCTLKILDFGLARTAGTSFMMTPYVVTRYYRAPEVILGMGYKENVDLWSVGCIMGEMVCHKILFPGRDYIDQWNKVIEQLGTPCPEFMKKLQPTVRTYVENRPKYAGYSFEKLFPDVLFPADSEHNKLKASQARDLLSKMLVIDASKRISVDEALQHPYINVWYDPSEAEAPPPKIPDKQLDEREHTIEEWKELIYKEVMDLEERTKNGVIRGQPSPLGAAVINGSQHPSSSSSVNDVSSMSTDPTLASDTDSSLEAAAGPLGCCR
Sequence of Mitogen-activated protein kinase 13 (O15264 whole entry): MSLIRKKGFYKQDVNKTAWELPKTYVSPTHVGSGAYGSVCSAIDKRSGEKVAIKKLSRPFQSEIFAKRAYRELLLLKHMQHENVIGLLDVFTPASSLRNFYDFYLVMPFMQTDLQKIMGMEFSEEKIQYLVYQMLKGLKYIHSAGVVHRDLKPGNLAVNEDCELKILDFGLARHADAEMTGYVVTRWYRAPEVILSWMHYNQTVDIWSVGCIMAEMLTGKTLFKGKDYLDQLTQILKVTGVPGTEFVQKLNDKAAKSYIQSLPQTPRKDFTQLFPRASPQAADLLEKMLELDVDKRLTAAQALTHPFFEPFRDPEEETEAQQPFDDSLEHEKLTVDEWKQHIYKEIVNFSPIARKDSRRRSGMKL
Sequence of Casein kinase I isoform gamma-1 (Q9HCP0 whole entry, canonical isoform): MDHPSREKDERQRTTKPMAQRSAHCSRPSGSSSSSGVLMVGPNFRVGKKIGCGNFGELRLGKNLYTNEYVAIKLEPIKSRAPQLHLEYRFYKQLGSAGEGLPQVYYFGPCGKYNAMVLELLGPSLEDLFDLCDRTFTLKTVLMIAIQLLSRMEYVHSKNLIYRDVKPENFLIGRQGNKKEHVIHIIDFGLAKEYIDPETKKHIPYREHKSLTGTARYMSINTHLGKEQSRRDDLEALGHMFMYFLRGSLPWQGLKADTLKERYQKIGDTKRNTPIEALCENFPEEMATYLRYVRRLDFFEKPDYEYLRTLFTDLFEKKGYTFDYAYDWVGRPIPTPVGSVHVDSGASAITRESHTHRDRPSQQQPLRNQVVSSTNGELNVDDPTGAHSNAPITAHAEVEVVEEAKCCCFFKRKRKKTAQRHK
Sequence of Serine/threonine-protein kinase D2 (Q9BZL6 whole entry): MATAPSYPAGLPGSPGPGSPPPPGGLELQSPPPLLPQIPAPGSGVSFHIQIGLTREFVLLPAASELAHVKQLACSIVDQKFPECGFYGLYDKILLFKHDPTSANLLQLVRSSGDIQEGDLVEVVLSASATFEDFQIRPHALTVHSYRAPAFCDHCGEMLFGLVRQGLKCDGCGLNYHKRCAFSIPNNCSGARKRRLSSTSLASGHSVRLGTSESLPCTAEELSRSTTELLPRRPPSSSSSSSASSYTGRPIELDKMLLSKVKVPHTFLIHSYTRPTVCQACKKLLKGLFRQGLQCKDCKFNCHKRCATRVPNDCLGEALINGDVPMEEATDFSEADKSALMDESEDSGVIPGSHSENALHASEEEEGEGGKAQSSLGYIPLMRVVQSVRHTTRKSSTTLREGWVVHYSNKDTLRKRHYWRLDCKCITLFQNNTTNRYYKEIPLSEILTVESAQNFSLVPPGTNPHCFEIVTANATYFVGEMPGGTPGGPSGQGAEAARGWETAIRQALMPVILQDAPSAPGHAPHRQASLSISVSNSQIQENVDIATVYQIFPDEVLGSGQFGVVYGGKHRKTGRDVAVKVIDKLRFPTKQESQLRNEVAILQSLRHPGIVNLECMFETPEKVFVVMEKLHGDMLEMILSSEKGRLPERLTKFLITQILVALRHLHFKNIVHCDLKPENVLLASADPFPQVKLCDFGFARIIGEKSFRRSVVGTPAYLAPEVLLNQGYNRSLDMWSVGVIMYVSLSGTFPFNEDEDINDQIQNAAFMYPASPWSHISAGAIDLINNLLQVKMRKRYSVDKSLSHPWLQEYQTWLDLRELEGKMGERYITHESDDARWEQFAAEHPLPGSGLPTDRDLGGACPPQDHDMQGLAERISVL
Sequence of Serine/threonine-protein kinase D3 (O94806 whole entry): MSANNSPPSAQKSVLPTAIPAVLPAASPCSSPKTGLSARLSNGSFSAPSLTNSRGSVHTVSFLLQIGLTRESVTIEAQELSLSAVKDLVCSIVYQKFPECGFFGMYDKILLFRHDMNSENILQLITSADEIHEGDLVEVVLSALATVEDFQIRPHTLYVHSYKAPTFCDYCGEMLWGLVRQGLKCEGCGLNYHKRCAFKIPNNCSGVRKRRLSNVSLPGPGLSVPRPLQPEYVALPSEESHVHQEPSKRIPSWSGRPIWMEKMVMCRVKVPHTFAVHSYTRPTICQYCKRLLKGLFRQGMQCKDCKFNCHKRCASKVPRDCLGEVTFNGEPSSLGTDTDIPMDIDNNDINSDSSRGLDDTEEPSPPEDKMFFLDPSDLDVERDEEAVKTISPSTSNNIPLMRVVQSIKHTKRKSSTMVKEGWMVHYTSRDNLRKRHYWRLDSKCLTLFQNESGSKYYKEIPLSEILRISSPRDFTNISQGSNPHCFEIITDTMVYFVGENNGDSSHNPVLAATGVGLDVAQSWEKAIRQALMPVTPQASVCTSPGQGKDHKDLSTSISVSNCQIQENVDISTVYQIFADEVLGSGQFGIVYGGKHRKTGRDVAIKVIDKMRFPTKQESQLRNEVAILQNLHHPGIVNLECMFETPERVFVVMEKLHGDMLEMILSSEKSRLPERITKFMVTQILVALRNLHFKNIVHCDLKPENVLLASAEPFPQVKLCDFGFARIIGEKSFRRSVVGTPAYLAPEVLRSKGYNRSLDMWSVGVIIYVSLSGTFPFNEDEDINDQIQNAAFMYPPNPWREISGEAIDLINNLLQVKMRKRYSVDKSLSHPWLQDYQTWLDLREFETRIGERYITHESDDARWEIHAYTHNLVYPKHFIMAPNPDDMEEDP
Sequence of Homeodomain-interacting protein kinase 4 (Q8NE63 whole entry): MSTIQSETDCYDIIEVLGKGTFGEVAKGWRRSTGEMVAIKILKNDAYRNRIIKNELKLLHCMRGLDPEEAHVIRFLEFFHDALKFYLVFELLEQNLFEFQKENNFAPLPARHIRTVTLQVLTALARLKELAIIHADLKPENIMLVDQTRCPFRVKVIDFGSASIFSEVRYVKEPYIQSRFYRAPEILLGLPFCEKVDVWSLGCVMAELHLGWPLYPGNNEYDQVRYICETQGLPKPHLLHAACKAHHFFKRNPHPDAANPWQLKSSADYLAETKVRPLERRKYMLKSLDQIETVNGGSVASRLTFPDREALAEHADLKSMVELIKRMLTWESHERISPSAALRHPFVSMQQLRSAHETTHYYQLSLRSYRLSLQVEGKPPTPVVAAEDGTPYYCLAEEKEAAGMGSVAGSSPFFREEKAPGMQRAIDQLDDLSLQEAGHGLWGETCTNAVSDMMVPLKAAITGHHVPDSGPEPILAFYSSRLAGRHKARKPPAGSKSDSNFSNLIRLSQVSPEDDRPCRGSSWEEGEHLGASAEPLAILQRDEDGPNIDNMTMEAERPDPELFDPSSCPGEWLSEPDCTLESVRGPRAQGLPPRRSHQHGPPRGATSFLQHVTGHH
Sequence of Induced myeloid leukemia cell differentiation protein Mcl-1 (Q07820 whole entry): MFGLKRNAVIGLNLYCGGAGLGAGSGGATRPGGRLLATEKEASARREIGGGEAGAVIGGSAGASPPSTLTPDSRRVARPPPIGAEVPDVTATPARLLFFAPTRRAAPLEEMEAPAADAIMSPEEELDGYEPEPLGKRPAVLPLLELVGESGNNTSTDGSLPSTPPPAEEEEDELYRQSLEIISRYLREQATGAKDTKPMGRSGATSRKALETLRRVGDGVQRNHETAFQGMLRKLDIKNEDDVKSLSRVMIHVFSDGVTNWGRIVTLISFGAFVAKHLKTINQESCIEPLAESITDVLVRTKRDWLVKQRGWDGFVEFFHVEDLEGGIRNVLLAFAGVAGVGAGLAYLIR

C=CCNC1=C(Cl)C(=O)c2ccccc2C1=O
active: AC50 [1] 50400 nM

CS(=O)(=O)c1ccc2c(c1)SC1=NC(=O)/C(=C/c3ccc(O)c(O)c3)C(=N)N12
active: IC50 (Aminopeptidase N) 51200 nM | IC50 [2] 5260 nM

CCOC(=O)C(C(=O)OCC)c1cc(Br)c2noc3c2c1C(=O)c1ccccc1-3
active: IC50 (Nonstructural protein 1) 35500 nM | EC50 [3] 3060 nM | EC50 [4] 510 nM

CN(C)c1ccc(-c2nnc(-c3cccs3)o2)cc1
inactive: IC50 [5] > 49700 nM | IC50 (Orexin receptor type 2) > 88800 nM

COc1ccc(C(=O)Nc2n[nH]c3ccc(-c4cn(Cc5ccccc5)nn4)cc23)cc1OC
active: Ki [6] 1580 nM | Ki [7] 1000 nM | Ki [8] 501 nM | Ki [11] 251 nM | Ki [12] 25.1 nM | Ki (SRSF protein kinase 1) 1580 nM | Ki [13] 631 nM | Ki [14] 2000 nM | Ki [15] 501 nM | Ki (Aurora kinase A) 398 nM | Ki [17] 6310 nM | Ki [18] 1.26 nM
inactive: Ki [9] > 10000 nM | Ki [10] > 7940 nM | Ki [16] > 6310 nM
